Measured values from paper PMC8955370, “Triterpenes and Phenolic Compounds from Euphorbia deightonii with Antiviral Activity against Herpes Simplex Virus Type-2” (Plants, 2022).
Read-outs that look alike come from different tables or passages of the source.

What was measured:
[1] = MTT cell viability assay for cytotoxic concentration 50% (CC50); type: cell-based; conditions: African green monkey
Protocol: For the determination of cytotoxic concentration 50% (CC50), a cell viability test was performed as an MTT assay using the Vero cell line. Cells were seeded at a density of 4 × 10^4 cells/well. After an overnight period, fresh medium was complemented with serial 2-fold dilutions of all compounds 1–8. The cells were incubated at 37 °C for 24 h. Later, 20 μL of thiazolyl blue tetrazolium bromide (MTT; Sigma-Aldrich, St. Louis, MO, USA) was added to each well. After an additional incubation at 37 °C for 4 h, sodium dodecyl sulphate (Sigma-Aldrich, St. Louis, MO, USA) solution (10% in 0.01 M HCI) was added and incubated overnight. CC50 was then determined by measuring the OD at 550 nm (ref. 630 nm) with the EZ READ 400 ELISA reader (Biochrom, Cambridge, UK). The assay was replicated four times for each concentration.

HSV-2 [2] = test: Anti-HSV-2 qRT-PCR assay on infected Vero cells; conditions: for IC50: Human alphaherpesvirus 2, Vero; for Selectivity Index: SI = CC50/IC50; for Anti-HSV-2 Activity IC50: Vero cells infected with 0.01 MOI HSV-2, 24 h, qRT-PCR
HSV-2 [3] = conditions: by reducing HSV-2 infectivity; cited from earlier work
[4] = test system: gastric epithelial cell lines (GES–2); set-up: method as in PMID 23109850; conditions: GES–2 cells; cited from earlier work
rat epithelioid = test system: rat epithelioid; set-up: method as in PMID 26274958; conditions: rat epithelioid cells; cited from earlier work
[5] = test system: human normal liver (L–O2); set-up: method as in PMID 23109850; conditions: L–O2 cells; cited from earlier work
[6] = test system: six terrestrial pathogenic bacteria; set-up: method as in PMID 24914904; conditions: cited from earlier work
[7] = test system: human HT-1080 fibrosarcoma; set-up: method as in PMID 9677271; conditions: cited from earlier work
[8] = test system: murine colon 26-L5 carcinoma cells; set-up: method as in PMID 9677271; conditions: cited from earlier work
Trychophyton rubrum = test system: Trychophyton rubrum; set-up: method as in doi:10.1016/S0031-9422(00)81759-8; conditions: cited from earlier work
Klebsiella pneumoniae = test system: Klebsiella pneumoniae; set-up: method as in doi:10.1016/S0031-9422(00)81759-8; conditions: cited from earlier work
Bacillus subtilis = test system: Bacillus subtilis; set-up: method as in doi:10.1016/S0031-9422(00)81759-8; conditions: cited from earlier work
hepatitis B virus (HBV) = test system: hepatitis B virus (HBV); set-up: method as in PMID 31557836; conditions: HepG2.2.15 model transfected with HBV; cited from earlier work
[9] = test system: porcine circovirus type 2 (PCV2); set-up: method as in doi:10.1007/s12257-014-0520-8; conditions: at the concentration of 0.01563 mg/mL; cited from earlier work
[10] = test system: influenza A virus (A/PR/8/34, H1N1); set-up: method as in PMID 28081470; conditions: not effective; cited from earlier work
[11] = test system: acyclovir (ACV)-resistant strains of HSV-1; set-up: method as in PMID 32545813; conditions: ACV-resistant HSV-1; cited from earlier work
[12] = test system: acyclovir (ACV)-resistant strains of HSV-2; conditions: ACV-resistant HSV-2; cited from earlier work
HSV-1 = test system: HSV-1; set-up: method as in PMID 14526920; conditions: cited from earlier work
HSV-2 [13] = test system: HSV-2; set-up: method as in PMID 14526920; conditions: cited from earlier work
HSV = test system: HSV; set-up: method as in PMID 14998984; conditions: cited from earlier work
[14] = 24 h, read-out: Anti-HSV-2 Activity IC50
[15] = Vero cells, MTT assay, 24 h, read-out: CC50

**Q.** What does the source list for `C=CC(OC)c1cc(OC)c2c(c1)[C@@H](COC(C)=O)[C@H](c1ccc(O)c(OC)c1)O2` (relative stereo) [Compound 4, trans-(2-(4-hydroxy-3-methoxyphenyl)-7-methoxy-5-(1-methoxyallyl)-2,3-dihydrobenzofuran-3-yl)methyl acetate]?
**A.** CC50 at 24 h [1]: 39.8 ± 4.73 µM; IC50 (HSV-2 [2]; [14]): 11.7 ± 0.79 µM; Selectivity Index (HSV-2 [2]): 3.389

**Q.** For `O=C(OC1C(O)C(O)OC2COC(=O)c3cc(O)c(O)c(O)c3-c3c(cc(O)c(O)c3O)C(=O)OC21)c1cc(O)c(O)c(O)c1` [3-O-galloyl-4,6-(S)-hexahydroxydiphenoyl-D-glucose], which HSV-2 multiplication (HSV-2 [3]) is on record?
**A.** inhibit HSV-2 multiplication

**Q.** Which CC50 at 24 h [1] does the source give for `Nc1nc2c(ncn2COCCO)c(=O)[nH]1` [Acyclovir, reference compound] here?
**A.** 100 ± 6.15 µM

**Q.** What about the IC50 (HSV-2 [2]; [14]) of the same compound?
**A.** 0.77 ± 0.032 µM

**Q.** What about the “Selectivity Index” value (HSV-2 [2]) of the same compound?
**A.** 129.87

**Q.** With `C=C(CC[C@@H](C)[C@H]1CC[C@@]2(C)C3=C(C(=O)C[C@]12C)[C@@]1(C)CC[C@H](O)C(C)(C)[C@@H]1C[C@@H]3O)C(C)C` [Compound 1, 3β,7β-dihydroxy-24-methylenelanosta-8-ene-11-one] as the compound, how does the CC50 at 24 h [1] read?
**A.** 35.5 ± 1.62 µM

**Q.** What about the IC50 (HSV-2 [2]; [14]) of the same compound?
**A.** 7.05 ± 0.25 µM

**Q.** And the “Selectivity Index” value (HSV-2 [2])?
**A.** 5.03

**Q.** Which CC50 at 24 h [1, 15] does the source give for `CC(C)=CCC[C@@H](C)[C@@H]1CC[C@]2(C)C3=C(CC[C@@]12C)[C@@]1(C)CC[C@H](O)C(C)(C)[C@@H]1CC3=O` [Compound 2, kansenone] here?
**A.** 52.1 ± 2.21 µM

**Q.** And the “Anti-HSV-2 Activity IC50” value (HSV-2 [2])?
**A.** inactive

**Q.** And the cytotoxicity [4]?
**A.** strong cytotoxicity

**Q.** And the cytotoxicity (rat epithelioid)?
**A.** strong cytotoxicity

**Q.** What about the cytotoxicity [5] of the same compound?
**A.** strong cytotoxicity

**Q.** What does the source list for `C=C(CC[C@H](C)[C@@H]1CC[C@@]2(C)C3=C(CC[C@]12C)[C@@]1(C)CC[C@H](O)C(C)(C)[C@@H]1CC3=O)C(C)C` [Compound 3, euphorbol-7-one]?
**A.** CC50 at 24 h [1, 15]: 7.84 ± 0.96 µM; antibacterial activity [6]: ineffective; IC50 (HSV-2 [2]; [14]): 2.42 ± 0.06 µM; Selectivity Index (HSV-2 [2]): 3.23

**Q.** What does the source list for `COc1cc([C@H]2Oc3c(OC)cc(/C=C/COC(C)=O)cc3[C@@H]2COC(C)=O)ccc1O` [Compound 5, dehydrodiconiferyl-diacetate]?
**A.** cytotoxic activity [7]: moderate cytotoxic activity; CC50 at 24 h [1]: 82.5 ± 8.94 µM; Anti-HSV-2 Activity IC50 (HSV-2 [2]): inactive; cytotoxic activity [8]: moderate cytotoxic activity

**Q.** Which antimicrobial activity (Trychophyton rubrum) does the source give for `COc1cc(C(OC)C(COC(C)=O)Oc2ccc(/C=C/COC(C)=O)cc2OC)ccc1O` (centres unmarked) [Compound 6, marylaurencinol D] here?
**A.** no effect

**Q.** What about the CC50 at 24 h [1] of the same compound?
**A.** 71.6 ± 5.83 µM

**Q.** And the antimicrobial activity (Klebsiella pneumoniae)?
**A.** no effect

**Q.** And the antimicrobial activity (Bacillus subtilis)?
**A.** weak potency

**Q.** And the “Anti-HSV-2 Activity IC50” value (HSV-2 [2])?
**A.** inactive

**Q.** With `COc1cc2ccc(=O)oc2cc1OC` [Compound 7, 6,7-dimethoxycoumarin] as the compound, how does the CC50 at 24 h [1] read?
**A.** 0.35 ± 0.016 µM

**Q.** What about the IC50 (HSV-2 [2]; [14]) of the same compound?
**A.** 0.032 ± 0.0021 µM

**Q.** What about the IC50 (HSV-2 [2]; read-out: IC50 (anti-HSV-2)) of the same compound?
**A.** 0.032 µM

**Q.** And the “Selectivity Index” value (HSV-2 [2])?
**A.** 10.923

**Q.** What about the “anti-hepatitis B virus activity” value (hepatitis B virus (HBV)) of the same compound?
**A.** efficiently inhibits viral replication

**Q.** And the “effect on PCV2 replication” value [9]?
**A.** replication-inducing activity

**Q.** And the “IC50 against influenza A virus” value [10]?
**A.** > 15 µg/mL

**Q.** What does the source list for `COc1cc2c(=O)oc3c(OC)c(O)cc4c(=O)oc(c1OC)c2c34` [Compound 8, 3,4,3′-tri-O-methylellagic acid]?
**A.** CC50 at 24 h [1]: 25.7 ± 1.84 µM; Anti-HSV-2 Activity IC50 (HSV-2 [2]): inactive

**Q.** For `O=C1OC[C@H]2OC(=O)c3cc(O)c(O)c(O)c3-c3c(O)c(O)c(O)c4c3C(=O)O[C@H]([C@H]3OC(=O)c5c-4c(O)c(O)c(O)c5[C@H]3O)[C@@H]2OC(=O)c2cc(O)c(O)c(O)c2-c2c1cc(O)c(O)c2O` [castalagin], which antiviral activity [11] is on record?
**A.** activity against acyclovir (ACV)-resistant strains of HSV-1 and HSV-2 was proved

**Q.** What about the antiviral activity [12] of the same compound?
**A.** activity against acyclovir (ACV)-resistant strains of HSV-1 and HSV-2 was proved

**Q.** Which “viral plaque inhibitory effect” value (HSV-1) does the source give for `C=C(C)[C@@H]1CC[C@]2(C)CC[C@]3(C)[C@H](CC[C@@H]4[C@@]5(C)CCC(=O)C(C)(C)[C@@H]5CC[C@]43C)[C@@H]12` [lupenone] here?
**A.** strong viral plaque inhibitory effect

**Q.** What about the “viral plaque inhibitory effect” value (HSV-2 [13]) of the same compound?
**A.** strong viral plaque inhibitory effect

**Q.** For `O=C(OC1OC2COC(=O)c3cc(O)c(O)c(O)c3-c3c(cc(O)c(O)c3O)C(=O)OC3C2OC(=O)C24CC5(O)OC6(OCC(O)C6O)C2OC2(O)C4c4c(cc(O)c(O)c4OC52O)C(=O)OC13)c1cc(O)c(O)c(O)c1` (centres unmarked) [putranjivain A], which “viral attachment and cell penetration” value (HSV) is on record?
**A.** inhibition of viral attachment and cell penetration

**Q.** What about the viral infectivity (HSV) of the same compound?
**A.** significantly reduce viral infectivity

**Q.** With `O=C1OCC2OC(=O)c3cc(O)c(O)c(O)c3-c3c(O)c(O)c(O)c4c3C(=O)OC(C2OC(=O)c2cc(O)c(O)c(O)c2-c2c1cc(O)c(O)c2O)C1OC(=O)c2c-4c(O)c(O)c(O)c2C1O` (centres unmarked) [vescalagin] as the compound, how does the antiviral activity [11] read?
**A.** activity against acyclovir (ACV)-resistant strains of HSV-1 and HSV-2 was proved

**Q.** What about the antiviral activity [12] of the same compound?
**A.** activity against acyclovir (ACV)-resistant strains of HSV-1 and HSV-2 was proved

**Q.** With grandinin as the compound, how does the antiviral activity [11] read?
**A.** activity against acyclovir (ACV)-resistant strains of HSV-1 and HSV-2 was proved

**Q.** And the antiviral activity [12]?
**A.** activity against acyclovir (ACV)-resistant strains of HSV-1 and HSV-2 was proved
